According to patent US5840684A, “Glycopeptide antibiotic derivatives” (Eli Lilly and Company, priority 1995, dated 1998):
Values after ≈ are worked out from the molar mass of the structure shown.

Key:
[1] = system: Staphylococcus aureus S13E; assay type: cell-based
Description: (§1) The MIC's were determined using a standard broth micro-dilution assay.

[2] = system: Staphylococcus aureus SA1199B; assay type: cell-based
Description: as §1

[3] = system: Entercoccus faecium 180-1; test: broth micro-dilution MIC; assay type: cell-based
Description: as §1

Entercoccus faecium 276 = test: broth micro-dilution MIC; assay type: cell-based
Description: as §1

[4] = system: Staphylococcus aureus 446; test: broth micro-dilution MIC; assay type: cell-based
Description: as §1

[5] = system: Staphylococcus aureus 447; test: broth micro-dilution MIC; assay type: cell-based
Description: as §1

[6] = system: Staphylococcus aureus 489; test: broth micro-dilution MIC; assay type: cell-based
Description: as §1

[7] = system: Staphylococcus aureus 491; test: broth micro-dilution MIC; assay type: cell-based
Description: as §1

[8] = system: Staphylococcus aureus SA1199A; test: broth micro-dilution MIC; assay type: cell-based
Description: as §1

[9] = system: Staphylococcus aureus SA1199; test: broth micro-dilution MIC; assay type: cell-based
Description: as §1

[10] = system: Staphylococcus aureus X400; test: broth micro-dilution MIC; assay type: cell-based
Description: as §1

[11] = system: Staphylococcus aureus X778; test: broth micro-dilution MIC; assay type: cell-based
Description: as §1

[12] = system: Streptococcus pyogenes C203; test: broth micro-dilution MIC; assay type: cell-based
Description: as §1

Entercoccus faecium 180 = test: broth micro-dilution MIC; assay type: cell-based; conditions: Entercoccus faecium 180
Description: (§2) The formula I compounds have in vitro and in vivo activity against Gram-positive pathogenic bacteria. The MIC's were determined using a standard broth micro-dilution assay.

Entercoccus faecium 2041 = test: broth micro-dilution MIC; assay type: cell-based; conditions: Entercoccus faecium 2041
Description: as §2

[13] = system: Enterococcus gallinarum 245; test: broth micro-dilution MIC; assay type: cell-based; conditions: Enterococcus gallinarum 245
Description: as §2

Escherichia coli EC14 = test: broth micro-dilution MIC; assay type: cell-based
Description: as §2

[14] = system: Haemophilus influenzae RD; test: broth micro-dilution MIC; assay type: cell-based; conditions: Haemophilus influenzae RD
Description: as §2

[15] = system: Staphylococcus epidermidis 270; test: broth micro-dilution MIC; assay type: cell-based
Description: as §2

[16] = system: Staphylococcus haemolyticus 105; test: broth micro-dilution MIC; assay type: cell-based
Description: as §2

[17] = system: Staphylococcus haemolyticus 415; test: broth micro-dilution MIC; assay type: cell-based
Description: as §2

[18] = system: Streptococcus pneumoniae P1; test: broth micro-dilution MIC; assay type: cell-based
Description: as §2

[19] = system: vancomycin-resistant enterococci; test: broth micro-dilution, mean geometric MIC; assay type: cell-based, Enterococcus faecium and Enterococcus faecalis; conditions: enterococci, 24-hour incubation
[20] = system: vancomycin-susceptible enterococci; test: broth micro-dilution, mean geometric MIC; assay type: cell-based, Enterococcus faecium and Enterococcus faecalis; conditions: enterococci, 24-hour incubation

Row | Compound | MIC [1] [µg/mL] | MIC [2] [µg/mL] | MIC [3] [µg/mL] | MIC (Entercoccus faecium 276) [µg/mL] | MIC [4] [µg/mL] | MIC [5] [µg/mL] | MIC [6] [µg/mL] | MIC [7] [µg/mL] | MIC [8] [µg/mL] | MIC [9] [µg/mL] | MIC [10] [µg/mL] | MIC [11] [µg/mL] | MIC [12] [µg/mL] | MIC (Entercoccus faecium 180) [µg/mL] | MIC (Entercoccus faecium 2041) [µg/mL] | MIC [13] [µg/mL] | MIC (Escherichia coli EC14) [µg/mL] | MIC [14] [µg/mL] | MIC [15] [µg/mL] | MIC [16] [µg/mL] | other results
1 | CC(C)CC(C(=O)NC1C(=O)NC(CC(N)=O)C(=O)NC2C(=O)NC3C(=O)NC(C(=O)NC(C(=O)O)c4cc(O)cc(O)c4-c4cc3ccc4O)C(OC3CC(C)(N)C(O)C(C)O3)c3ccc(c(Cl)c3)Oc3cc2cc(c3OC2OC(CO)C(O)C(O)C2OC2CC(C)(NCc3ccc(Cc4ccccc4)cc3)C(O)C(C)O2)Oc2ccc(cc2Cl)C1O)N(C)Cc1ccc(Cc2ccccc2)cc1 (stereo not drawn) [Compound 270] | 2 (≈ 1.02 µM) | 2 (≈ 1.02 µM) | ≤ 0.06 | 1 (≈ 0.512 µM) | 1 (≈ 0.512 µM) | 0.5 (≈ 0.256 µM) | 0.25 (≈ 0.128 µM) | 0.25 (≈ 0.128 µM) | ≤ 0.06 | 1 (≈ 0.512 µM) | 1 (≈ 0.512 µM) | 0.5 (≈ 0.256 µM) | ≤ 0.06 | 0.25 (≈ 0.128 µM) | 0.5 (≈ 0.256 µM) | 2 (≈ 1.02 µM) | > 64 | > 64 | 1 (≈ 0.512 µM) | 4 (≈ 2.05 µM) | MIC [17]: 2 µg/mL (≈ 1.02 µM); MIC [18]: ≤ 0.06 µg/mL; mean geometric MIC, Vancomycin Resistant Strains [19]: 2.8 µg/mL; mean geometric MIC, Vancomycin Sensitive Strains [20]: 0.66 µg/mL
2 | CC(C)CC(C(=O)NC1C(=O)NC(CC(N)=O)C(=O)NC2C(=O)NC3C(=O)NC(C(=O)NC(C(=O)O)c4cc(O)cc(O)c4-c4cc3ccc4O)C(OC3CC(C)(N)C(O)C(C)O3)c3ccc(c(Cl)c3)Oc3cc2cc(c3OC2OC(CO)C(O)C(O)C2OC2CC(C)(NCc3cccc(Oc4ccccc4)c3)C(O)C(C)O2)Oc2ccc(cc2Cl)C1O)N(C)Cc1cccc(Oc2ccccc2)c1 (stereo not drawn) [Compound 271] | 1 (≈ 0.511 µM) | 1 (≈ 0.511 µM) | 0.125 (≈ 0.0639 µM) | 1 (≈ 0.511 µM) | 1 (≈ 0.511 µM) | 2 (≈ 1.02 µM) | 1 (≈ 0.511 µM) | 0.5 (≈ 0.256 µM) | 0.5 (≈ 0.256 µM) | 2 (≈ 1.02 µM) | 2 (≈ 1.02 µM) | 0.5 (≈ 0.256 µM) | ≤ 0.06 | 2 (≈ 1.02 µM) | 2 (≈ 1.02 µM) | 2 (≈ 1.02 µM) | > 64 | > 64 | 1 (≈ 0.511 µM) | 2 (≈ 1.02 µM) | MIC [17]: 2 µg/mL (≈ 1.02 µM); MIC [18]: ≤ 0.06 µg/mL; mean geometric MIC, Vancomycin Resistant Strains [19]: 5.7 µg/mL; mean geometric MIC, Vancomycin Sensitive Strains [20]: 0.33 µg/mL
3 | CNC(CC(C)C)C(=O)NC1C(=O)NC(CC(N)=O)C(=O)NC2C(=O)NC3C(=O)NC(C(=O)NC(C(=O)O)c4cc(O)cc(O)c4-c4cc3ccc4O)C(OC3CC(C)(NCc4ccc(C(F)(F)F)cc4)C(O)C(C)O3)c3ccc(c(Cl)c3)Oc3cc2cc(c3OC2OC(CO)C(O)C(O)C2OC2CC(C)(NCc3ccc(C(F)(F)F)cc3)C(O)C(C)O2)Oc2ccc(cc2Cl)C1O (stereo not drawn) [Compound 272] | 0.125 (≈ 0.0655 µM) | ≤ 0.06 | ≤ 0.06 | 0.125 (≈ 0.0655 µM) | 0.25 (≈ 0.131 µM) | 0.25 (≈ 0.131 µM) | 0.125 (≈ 0.0655 µM) | 0.25 (≈ 0.131 µM) | ≤ 0.06 | 0.25 (≈ 0.131 µM) | 0.125 (≈ 0.0655 µM) | 0.125 (≈ 0.0655 µM) | ≤ 0.06 | 0.5 (≈ 0.262 µM) | 0.125 (≈ 0.0655 µM) | 0.5 (≈ 0.262 µM) | > 64 | > 64 | ≤ 0.06 | 0.125 (≈ 0.0655 µM) | MIC [17]: 0.5 µg/mL (≈ 0.262 µM); MIC [18]: ≤ 0.06 µg/mL; mean geometric MIC, Vancomycin Resistant Strains [19]: 4.75 µg/mL; mean geometric MIC, Vancomycin Sensitive Strains [20]: 0.072 µg/mL
4 | CC(C)CC(C(=O)NC1C(=O)NC(CC(N)=O)C(=O)NC2C(=O)NC3C(=O)NC(C(=O)NC(C(=O)O)c4cc(O)cc(O)c4-c4cc3ccc4O)C(OC3CC(C)(N)C(O)C(C)O3)c3ccc(c(Cl)c3)Oc3cc2cc(c3OC2OC(CO)C(O)C(O)C2OC2CC(C)(NCc3ccncc3)C(O)C(C)O2)Oc2ccc(cc2Cl)C1O)N(C)Cc1ccncc1 (stereo not drawn) [Compound 274] | 4 (≈ 2.25 µM) | 2 (≈ 1.13 µM) | 0.5 (≈ 0.282 µM) | 1 (≈ 0.563 µM) | 8 (≈ 4.51 µM) | 16 (≈ 9.02 µM) | 2 (≈ 1.13 µM) | 4 (≈ 2.25 µM) | 1 (≈ 0.563 µM) | 2 (≈ 1.13 µM) | 8 (≈ 4.51 µM) | 4 (≈ 2.25 µM) | 0.125 (≈ 0.0704 µM) | > 64 | 1 (≈ 0.563 µM) | > 64 | > 64 | > 64 | 16 (≈ 9.02 µM) | > 64 | MIC [17]: > 64 µg/mL; MIC [18]: ≤ 0.06 µg/mL; mean geometric MIC, Vancomycin Resistant Strains [19]: > 128 µg/mL; mean geometric MIC, Vancomycin Sensitive Strains [20]: 9.2 µg/mL
5 | CNC(CC(C)C)C(=O)NC1C(=O)NC(CC(N)=O)C(=O)NC2C(=O)NC3C(=O)NC(C(=O)NC(C(=O)O)c4cc(O)cc(O)c4-c4cc3ccc4O)C(OC3CC(C)(NCc4cnc5ccccc5c4)C(O)C(C)O3)c3ccc(c(Cl)c3)Oc3cc2cc(c3OC2OC(CO)C(O)C(O)C2OC2CC(C)(NCc3cnc4ccccc4c3)C(O)C(C)O2)Oc2ccc(cc2Cl)C1O (stereo not drawn) [Compound 275] | 0.125 (≈ 0.0667 µM) | 0.125 (≈ 0.0667 µM) | ≤ 0.06 | ≤ 0.06 | 0.25 (≈ 0.133 µM) | 1 (≈ 0.533 µM) | ≤ 0.06 | 1 (≈ 0.533 µM) | ≤ 0.06 | ≤ 0.06 | 0.25 (≈ 0.133 µM) | ≤ 0.06 | ≤ 0.06 | 1 (≈ 0.533 µM) | ≤ 0.06 | 4 (≈ 2.13 µM) | > 64 | > 64 | 1 (≈ 0.533 µM) | 1 (≈ 0.533 µM) | MIC [17]: 4 µg/mL (≈ 2.13 µM); MIC [18]: ≤ 0.06 µg/mL; mean geometric MIC, Vancomycin Resistant Strains [19]: 16 µg/mL; mean geometric MIC, Vancomycin Sensitive Strains [20]: 0.33 µg/mL
6 | CC(C)CC(C(=O)NC1C(=O)NC(CC(N)=O)C(=O)NC2C(=O)NC3C(=O)NC(C(=O)NC(C(=O)O)c4cc(O)cc(O)c4-c4cc3ccc4O)C(OC3CC(C)(N)C(O)C(C)O3)c3ccc(c(Cl)c3)Oc3cc2cc(c3OC2OC(CO)C(O)C(O)C2OC2CC(C)(NCc3cc4ccccc4s3)C(O)C(C)O2)Oc2ccc(cc2Cl)C1O)N(C)Cc1cc2ccccc2s1 (stereo not drawn) [Compound 276] | 2 (≈ 1.06 µM) | 1 (≈ 0.531 µM) | 0.25 (≈ 0.133 µM) | 1 (≈ 0.531 µM) | 1 (≈ 0.531 µM) | 4 (≈ 2.12 µM) | 1 (≈ 0.531 µM) | 1 (≈ 0.531 µM) | 0.25 (≈ 0.133 µM) | 1 (≈ 0.531 µM) | 2 (≈ 1.06 µM) | 1 (≈ 0.531 µM) | ≤ 0.06 | 4 (≈ 2.12 µM) | 1 (≈ 0.531 µM) | 4 (≈ 2.12 µM) | > 64 | > 64 | 4 (≈ 2.12 µM) | 4 (≈ 2.12 µM) | MIC [17]: 4 µg/mL (≈ 2.12 µM); MIC [18]: ≤ 0.06 µg/mL; mean geometric MIC, Vancomycin Resistant Strains [19]: 23 µg/mL; mean geometric MIC, Vancomycin Sensitive Strains [20]: 1.3 µg/mL
7 | COc1ccc2nc(-c3ccccc3)cc(CNC3(C)CC(OC4C(Oc5c6cc7cc5Oc5ccc(cc5Cl)C(OC5CC(C)(N)C(O)C(C)O5)C5NC(=O)C(NC(=O)C7NC(=O)C(CC(N)=O)NC(=O)C(NC(=O)C(CC(C)C)N(C)Cc7cc(-c8ccccc8)nc8ccc(OC)cc78)C(O)c7ccc(c(Cl)c7)O6)c6ccc(O)c(c6)-c6c(O)cc(O)cc6C(C(=O)O)NC5=O)OC(CO)C(O)C4O)OC(C)C3O)c2c1 (stereo not drawn) [Compound 277] | 16 (≈ 7.67 µM) | 16 (≈ 7.67 µM) | 0.5 (≈ 0.24 µM) | 1 (≈ 0.479 µM) | 64 (≈ 30.7 µM) | > 64 | 16 (≈ 7.67 µM) | 8 (≈ 3.83 µM) | 1 (≈ 0.479 µM) | 16 (≈ 7.67 µM) | 32 (≈ 15.3 µM) | 32 (≈ 15.3 µM) | ≤ 0.06 | 2 (≈ 0.958 µM) | 2 (≈ 0.958 µM) | > 64 | > 64 | > 64 | 16 (≈ 7.67 µM) | > 64 | MIC [17]: > 64 µg/mL; MIC [18]: ≤ 0.06 µg/mL; mean geometric MIC, Vancomycin Resistant Strains [19]: 32 µg/mL; mean geometric MIC, Vancomycin Sensitive Strains [20]: 1.1 µg/mL
